Assay results from US5153124A, “Hydroxyl-ML-236B derivatives, their preparation and use” (Sankyo Company Limited, priority 1985, dated 1992).

Each molecule was assayed on cholesterol biosynthesis (assay: Inhibitory activity against cholesterol biosynthesis (method of J. Biol. Chem. 234, 2835 (1959))). Details: method of Journal of Biological Chemistry, 234, 2835 (1959).
Assay type: biochemical
From the text: The inhibitory activities of certain of the compounds of the invention, in terms of the concentration in μg/ml required to inhibit cholesterol biosynthesis by 50% [measured by the method described in the Journal of Biological Chemistry, 234, 2835 (1959)], are as follows: […]

Structure (SMILES)	concentration required to inhibit cholesterol biosynthesis by 50%
CC(O)[C@H](C)C(=O)O[C@H]1C[C@H](O)C=C2C=C[C@H](C)[C@H](CC[C@@H](O)C[C@@H](O)CC(=O)O)[C@H]21 (single isomer, unassigned) [Sodium 3",6'β-dihydroxy-ML-236B carboxylate, Substance B]	0.024 µg/mL
CC[C@H](C)C(=O)O[C@H]1CCC=C2C=C[C@H](C)[C@H](CC[C@@H]3C[C@@H](O)CC(=O)O3)[C@H]21 [ML-236B lactone, reference compound]	0.010 µg/mL
CC(O)[C@H](C)C(=O)O[C@H]1C[C@H](O)C=C2C=C[C@H](C)[C@H](CC[C@@H](O)C[C@@H](O)CC(=O)O)[C@H]21 (single isomer, unassigned) [Sodium 3",6'β-dihydroxy-ML-236B carboxylate, Substance A]	0.0018 µg/mL
CC(O)[C@H](C)C(=O)O[C@H]1CCC=C2C=C[C@H](C)[C@H](CC[C@@H](O)C[C@@H](O)CC(=O)O)[C@H]21 (some centres unmarked) [Sodium 3"-hydroxy-ML-236B carboxylate]	0.0032 µg/mL
CC(O)[C@H](C)C(=O)O[C@H]1CCC=C2C=C[C@H](C)[C@H](CC[C@@H]3C[C@@H](O)CC(=O)O3)[C@H]21 (some centres unmarked) [3"-hydroxy-ML-236B lactone, 3"-Hydroxy-ML-236B lactone]	0.039 µg/mL
